{"source": "patent US20080003635A1", "about": "“High Throughput Collagen Synthesis Assay” (InterMune, Inc., priority 2006, published 2008)", "tested_on": "Human lung fibroblast cells HFL1", "assay": "cells", "format": "cell-based", "procedure": "Human lung fibroblast cells HFL1 were seeded as 5×10^4 cells/well in 48-well plate and cultured for 3-7 days in FK12 medium supplemented with 10% heat inactivated fetal calf serum, 2 mM L-glutamine, streptomycin (100 μg/ml), and penicillin (100 units/ml). […] Medium was removed and cells were fixed to the plate with 0.5% glutaraldehyde, prepared in 1× phosphate-buffered-saline (PBS), for 30 minutes at room temperature. Glutaraldehyde was removed, cells were washed with ddH2O and the first 24 wells, which were used to determine collagen synthesis, were treated with 0.5 M acetic acid for 30 minutes, while the second 24 wells were stained with 0.1% crystal violet for viability for 30 minutes at room temperature. After all of the wells were washed with ddH2O, 250 μl of Sirius Red was added to acetic acid-treated cells for 2 hours. The Sirius Red was then removed, and the wells were washed with ddH2O. Absorbed Sirius Red and crystal violet were eluted with 300 μl of alkaline solution and 0.1 M citric acid (pH: 4.2) prepared in 50% ethanol, respectively.\nAbsorbances of eluted Sirius Red and crystal violet were determined at 540 and 600 nm. The extent of collagen accumulation was determined by normalizing the levels of induced collagen to cell density.", "note": "Read-outs that look alike come from different tables or passages of the source."}
{"smiles": "Cc1ccc(=O)n(-c2ccccc2)c1", "note": "[P, pirfenidone]", "values": [{"measurement": "fold induction at 1000 µM", "setting": "HFL1, 24 h, read-out: Fold Induction of Collagen, 250 pg/ml TGF-β, 24 hrs., P 1 mM, A 300 pg/mL", "result": 0.973}, {"measurement": "fold induction at 1000 µM", "setting": "HFL1, 24 h, read-out: Fold Induction of Collagen, 500 pg/ml TGF-β, 24 hrs., P 1 mM, A 300 pg/mL", "result": 0.98}, {"measurement": "fold induction at 1000 µM", "setting": "HFL1, 24 h, read-out: Fold Induction of Collagen, 1000 pg/ml TGF-β, 24 hrs., P 1 mM, A 300 pg/mL", "result": 0.998}, {"measurement": "fold induction at 1000 µM", "setting": "HFL1, 48 h, read-out: Fold Induction of Collagen, 250 pg/ml TGF-β, 48 hrs., P 1 mM, A 300 pg/mL", "result": 0.997}, {"measurement": "fold induction at 1000 µM", "setting": "HFL1, 48 h, read-out: Fold Induction of Collagen, 500 pg/ml TGF-β, 48 hrs., P 1 mM, A 300 pg/mL", "result": 0.884}, {"measurement": "fold induction at 1000 µM", "setting": "HFL1, 48 h, read-out: Fold Induction of Collagen, 1000 pg/ml TGF-β, 48 hrs., P 1 mM, A 300 pg/mL", "result": 0.954}, {"measurement": "fold induction at 1000 µM", "setting": "HFL1, 72 h, read-out: Fold Induction of Collagen, 250 pg/ml TGF-β, 72 hrs., P 1 mM, A 300 pg/mL", "result": 0.928}, {"measurement": "fold induction at 1000 µM", "setting": "HFL1, 72 h, read-out: Fold Induction of Collagen, 500 pg/ml TGF-β, 72 hrs., P 1 mM, A 300 pg/mL", "result": 0.931}, {"measurement": "fold induction at 1000 µM", "setting": "HFL1, 72 h, read-out: Fold Induction of Collagen, 1000 pg/ml TGF-β, 72 hrs., P 1 mM, A 300 pg/mL", "result": 0.917}]}
